The text below walks through data of ChEMBL document CHEMBL3132769, “Fragment growing to retain or alter the selectivity of anchored kinase hinge-binding fragments” (Medchemcomm, 2014).

In assay [1] the target is T1, Cytoplasmic tyrosine-protein kinase BMX (Homo sapiens) (UniProt P51813).
T1 sequence (whole entry): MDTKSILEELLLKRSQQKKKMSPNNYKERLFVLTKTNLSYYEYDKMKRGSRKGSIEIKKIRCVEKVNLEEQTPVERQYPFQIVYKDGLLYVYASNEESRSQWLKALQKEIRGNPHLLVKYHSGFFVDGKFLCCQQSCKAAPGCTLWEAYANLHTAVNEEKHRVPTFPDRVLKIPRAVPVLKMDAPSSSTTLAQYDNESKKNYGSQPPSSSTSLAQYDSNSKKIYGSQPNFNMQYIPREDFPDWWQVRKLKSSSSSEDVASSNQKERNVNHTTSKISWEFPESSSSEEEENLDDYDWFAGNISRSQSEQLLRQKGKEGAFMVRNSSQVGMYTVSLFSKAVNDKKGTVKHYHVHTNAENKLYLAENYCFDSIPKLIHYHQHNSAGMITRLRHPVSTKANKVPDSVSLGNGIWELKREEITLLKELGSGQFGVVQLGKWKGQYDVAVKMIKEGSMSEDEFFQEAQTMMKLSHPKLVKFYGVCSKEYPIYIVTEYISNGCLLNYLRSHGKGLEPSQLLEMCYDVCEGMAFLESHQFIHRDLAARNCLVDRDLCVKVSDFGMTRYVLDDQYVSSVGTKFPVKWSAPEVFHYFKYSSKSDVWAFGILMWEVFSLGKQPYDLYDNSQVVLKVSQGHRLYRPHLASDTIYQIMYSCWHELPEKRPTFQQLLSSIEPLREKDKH
In words: Inhibition of human full length BMX expressed in baculovirus assessed as substrate phosphorylation using fluorescence-labelled peptides as substrate at 0.2 uM after 90 mins by microfluidic peptide phosphorylation assay.

Assay [2] concerns the target Protein kinase C theta type (Homo sapiens) (UniProt Q04759). In words: Inhibition of human truncated PKC theta expressed in baculovirus assessed as substrate phosphorylation using fluorescence-labelled peptides as substrate at 0.2 uM after 90 mins by microfluidic peptide phosphorylation assay.
In assay [3] the target is Calcium/calmodulin-dependent protein kinase type II subunit beta (Homo sapiens) (UniProt Q13554). Description: Inhibition of human CAMK2 beta catalytic domain expressed in baculovirus assessed as substrate phosphorylation using fluorescence-labelled peptides as substrate at 0.2 uM after 90 mins by microfluidic peptide phosphorylation assay.
Sequence of Calcium/calmodulin-dependent protein kinase type II subunit beta (Homo sapiens) (Q13554 whole entry, the tested form may be a part): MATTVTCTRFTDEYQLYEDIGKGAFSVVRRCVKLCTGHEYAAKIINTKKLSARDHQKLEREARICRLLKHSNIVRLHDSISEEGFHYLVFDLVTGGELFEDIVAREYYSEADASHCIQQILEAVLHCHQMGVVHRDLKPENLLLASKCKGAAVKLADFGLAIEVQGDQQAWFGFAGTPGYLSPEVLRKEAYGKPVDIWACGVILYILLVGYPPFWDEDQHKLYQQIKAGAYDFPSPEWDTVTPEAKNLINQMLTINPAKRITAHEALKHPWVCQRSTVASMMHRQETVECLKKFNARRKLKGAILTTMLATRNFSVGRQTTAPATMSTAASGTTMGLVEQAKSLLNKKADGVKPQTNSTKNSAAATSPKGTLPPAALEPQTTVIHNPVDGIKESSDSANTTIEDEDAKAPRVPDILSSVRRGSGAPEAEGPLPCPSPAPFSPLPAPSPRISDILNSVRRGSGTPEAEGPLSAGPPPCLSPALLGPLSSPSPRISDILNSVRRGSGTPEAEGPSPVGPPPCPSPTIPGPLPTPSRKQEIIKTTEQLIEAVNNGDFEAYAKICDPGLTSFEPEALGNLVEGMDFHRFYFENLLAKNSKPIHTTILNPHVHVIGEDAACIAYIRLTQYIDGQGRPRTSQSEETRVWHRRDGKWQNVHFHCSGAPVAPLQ
Assay [4] addresses Serine/threonine-protein kinase Chk2 (Homo sapiens) (UniProt O96017). Description: Inhibition of human full length CHK2 expressed in baculovirus assessed as substrate phosphorylation using fluorescence-labelled peptides as substrate at 95 uM after 90 mins by microfluidic peptide phosphorylation assay.
Assay [5] has as its target Tyrosine-protein kinase Fyn (Homo sapiens) (UniProt P06241). In words: Inhibition of human full length FYN expressed in baculovirus assessed as substrate phosphorylation using fluorescence-labelled peptides as substrate at 95 uM after 90 mins by microfluidic peptide phosphorylation assay.
In assay [6] the test system is Tyrosine-protein kinase ABL1 (Homo sapiens), P00519 [T315I]. Description: Inhibition of human truncated ABL T315I mutant expressed in baculovirus assessed as substrate phosphorylation using fluorescence-labelled peptides as substrate at 0.06 uM after 90 mins by microfluidic peptide phosphorylation assay.
Assay [7] deals with T2, Serine/threonine-protein kinase DCLK2 (Homo sapiens) (UniProt Q8N568).
T2 sequence (whole entry): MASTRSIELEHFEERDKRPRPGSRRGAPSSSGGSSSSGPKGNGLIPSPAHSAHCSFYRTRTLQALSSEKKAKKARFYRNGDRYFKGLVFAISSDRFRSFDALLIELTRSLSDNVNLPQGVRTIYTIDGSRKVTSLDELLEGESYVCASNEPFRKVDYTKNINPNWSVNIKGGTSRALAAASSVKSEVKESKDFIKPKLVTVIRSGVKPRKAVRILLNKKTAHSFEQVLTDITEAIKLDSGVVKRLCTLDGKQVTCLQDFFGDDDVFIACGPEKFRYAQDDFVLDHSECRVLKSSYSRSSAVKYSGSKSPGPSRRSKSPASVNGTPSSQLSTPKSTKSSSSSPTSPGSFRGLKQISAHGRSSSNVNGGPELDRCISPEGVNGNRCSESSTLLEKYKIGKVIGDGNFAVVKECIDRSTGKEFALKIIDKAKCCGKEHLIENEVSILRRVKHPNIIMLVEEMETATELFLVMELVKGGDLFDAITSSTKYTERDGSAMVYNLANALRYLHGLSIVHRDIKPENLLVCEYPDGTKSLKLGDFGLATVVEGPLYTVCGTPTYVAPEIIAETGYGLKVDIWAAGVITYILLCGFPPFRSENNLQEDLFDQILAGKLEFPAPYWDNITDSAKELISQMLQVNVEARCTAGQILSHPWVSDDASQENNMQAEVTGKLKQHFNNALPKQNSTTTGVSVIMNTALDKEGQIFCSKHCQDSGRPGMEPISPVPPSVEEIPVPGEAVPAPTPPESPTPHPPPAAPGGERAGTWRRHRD
In words: Inhibition of human full length DCAMKL2 expressed in baculovirus assessed as substrate phosphorylation using fluorescence-labelled peptides as substrate at 2 uM after 90 mins by microfluidic peptide phosphorylation assay.

In assay [8] the target is Receptor-type tyrosine-protein kinase FLT3 (Homo sapiens) (UniProt P36888). In words: Inhibition of human FLT3 catalytic domain expressed in baculovirus assessed as substrate phosphorylation using fluorescence-labelled peptides as substrate at 2 uM after 90 mins by microfluidic peptide phosphorylation assay.
Sequence of Receptor-type tyrosine-protein kinase FLT3 (Homo sapiens) (P36888 whole entry, the tested form may be a part): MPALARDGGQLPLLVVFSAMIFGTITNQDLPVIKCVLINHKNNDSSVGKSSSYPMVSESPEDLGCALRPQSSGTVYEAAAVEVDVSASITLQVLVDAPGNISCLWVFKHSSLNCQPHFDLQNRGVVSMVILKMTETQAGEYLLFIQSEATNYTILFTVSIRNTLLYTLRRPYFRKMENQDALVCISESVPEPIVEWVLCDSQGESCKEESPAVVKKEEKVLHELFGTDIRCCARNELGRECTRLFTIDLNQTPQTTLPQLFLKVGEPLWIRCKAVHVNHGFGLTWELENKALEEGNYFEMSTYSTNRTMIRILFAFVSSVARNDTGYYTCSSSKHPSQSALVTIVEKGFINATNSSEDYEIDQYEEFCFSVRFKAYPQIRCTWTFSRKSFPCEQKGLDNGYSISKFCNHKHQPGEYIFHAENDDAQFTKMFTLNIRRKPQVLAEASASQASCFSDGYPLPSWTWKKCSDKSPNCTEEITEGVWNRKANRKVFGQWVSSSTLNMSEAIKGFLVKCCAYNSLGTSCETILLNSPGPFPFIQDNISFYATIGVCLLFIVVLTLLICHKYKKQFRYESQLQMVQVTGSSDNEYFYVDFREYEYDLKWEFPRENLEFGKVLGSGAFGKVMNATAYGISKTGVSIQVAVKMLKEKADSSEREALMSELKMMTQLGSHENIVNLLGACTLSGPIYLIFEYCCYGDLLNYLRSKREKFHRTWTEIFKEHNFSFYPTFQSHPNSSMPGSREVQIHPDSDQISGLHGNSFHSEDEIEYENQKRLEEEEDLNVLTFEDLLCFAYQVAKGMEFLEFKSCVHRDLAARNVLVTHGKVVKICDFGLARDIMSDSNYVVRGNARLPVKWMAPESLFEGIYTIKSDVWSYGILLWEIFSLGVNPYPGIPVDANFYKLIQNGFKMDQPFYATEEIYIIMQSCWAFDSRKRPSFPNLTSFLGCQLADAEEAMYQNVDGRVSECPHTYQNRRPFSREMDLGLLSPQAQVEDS
The target of assay [9] is T3, Protein kinase C epsilon type (Homo sapiens) (UniProt Q02156).
T3 sequence (whole entry): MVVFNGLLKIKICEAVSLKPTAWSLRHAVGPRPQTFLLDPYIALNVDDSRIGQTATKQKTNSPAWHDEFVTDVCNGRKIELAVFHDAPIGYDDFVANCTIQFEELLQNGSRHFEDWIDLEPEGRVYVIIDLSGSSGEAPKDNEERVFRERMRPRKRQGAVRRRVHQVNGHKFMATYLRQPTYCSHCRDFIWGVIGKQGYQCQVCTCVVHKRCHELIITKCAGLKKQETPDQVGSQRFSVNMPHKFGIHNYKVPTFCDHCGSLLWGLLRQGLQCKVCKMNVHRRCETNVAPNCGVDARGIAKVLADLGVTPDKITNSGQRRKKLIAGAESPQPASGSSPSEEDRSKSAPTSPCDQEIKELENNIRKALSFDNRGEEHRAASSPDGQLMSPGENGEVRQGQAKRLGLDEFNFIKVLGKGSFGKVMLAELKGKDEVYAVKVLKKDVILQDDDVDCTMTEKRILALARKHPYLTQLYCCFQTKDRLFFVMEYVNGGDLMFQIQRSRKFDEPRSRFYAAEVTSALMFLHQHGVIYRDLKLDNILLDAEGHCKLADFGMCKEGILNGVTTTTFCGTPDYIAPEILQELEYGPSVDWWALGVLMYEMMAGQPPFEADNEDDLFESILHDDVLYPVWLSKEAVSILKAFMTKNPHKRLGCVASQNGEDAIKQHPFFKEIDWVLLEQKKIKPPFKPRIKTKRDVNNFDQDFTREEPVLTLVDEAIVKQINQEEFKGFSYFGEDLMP
In words: Inhibition of human truncated PKC epsilon expressed in baculovirus assessed as substrate phosphorylation using fluorescence-labelled peptides as substrate at 70 uM after 90 mins by microfluidic peptide phosphorylation assay.

Sequence of Serine/threonine-protein kinase Chk2 (Homo sapiens) (O96017 whole entry): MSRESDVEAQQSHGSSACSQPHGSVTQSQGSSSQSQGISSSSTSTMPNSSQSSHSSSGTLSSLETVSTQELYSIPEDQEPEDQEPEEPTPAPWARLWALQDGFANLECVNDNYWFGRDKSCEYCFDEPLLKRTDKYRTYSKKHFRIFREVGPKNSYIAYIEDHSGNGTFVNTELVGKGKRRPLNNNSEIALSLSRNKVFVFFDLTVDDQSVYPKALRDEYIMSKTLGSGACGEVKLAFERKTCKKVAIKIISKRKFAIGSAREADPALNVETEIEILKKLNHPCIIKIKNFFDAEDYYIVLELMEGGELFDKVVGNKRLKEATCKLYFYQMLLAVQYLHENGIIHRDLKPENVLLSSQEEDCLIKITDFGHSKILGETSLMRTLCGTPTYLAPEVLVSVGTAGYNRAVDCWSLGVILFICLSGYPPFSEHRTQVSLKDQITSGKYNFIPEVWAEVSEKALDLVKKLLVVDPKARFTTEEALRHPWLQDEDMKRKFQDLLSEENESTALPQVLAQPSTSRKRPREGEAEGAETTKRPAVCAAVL
Sequence of Tyrosine-protein kinase Fyn (Homo sapiens) (P06241 2-537 limits assumed): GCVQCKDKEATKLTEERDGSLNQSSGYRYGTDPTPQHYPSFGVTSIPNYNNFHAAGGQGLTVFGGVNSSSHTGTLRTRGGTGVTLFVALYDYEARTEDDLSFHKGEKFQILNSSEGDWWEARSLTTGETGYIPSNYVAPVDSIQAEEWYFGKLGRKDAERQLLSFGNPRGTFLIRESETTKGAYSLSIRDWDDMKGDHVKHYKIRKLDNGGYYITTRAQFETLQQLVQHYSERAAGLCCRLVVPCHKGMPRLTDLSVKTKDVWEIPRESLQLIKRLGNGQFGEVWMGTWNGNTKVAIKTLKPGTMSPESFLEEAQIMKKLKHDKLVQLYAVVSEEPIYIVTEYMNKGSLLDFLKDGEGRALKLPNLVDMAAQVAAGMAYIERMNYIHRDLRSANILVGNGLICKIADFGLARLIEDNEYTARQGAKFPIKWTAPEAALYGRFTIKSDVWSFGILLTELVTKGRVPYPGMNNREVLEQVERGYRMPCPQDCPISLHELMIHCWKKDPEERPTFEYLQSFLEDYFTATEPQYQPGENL
Sequence of Protein kinase C theta type (Homo sapiens) (Q04759 whole entry, looked up, the tested form may be a part): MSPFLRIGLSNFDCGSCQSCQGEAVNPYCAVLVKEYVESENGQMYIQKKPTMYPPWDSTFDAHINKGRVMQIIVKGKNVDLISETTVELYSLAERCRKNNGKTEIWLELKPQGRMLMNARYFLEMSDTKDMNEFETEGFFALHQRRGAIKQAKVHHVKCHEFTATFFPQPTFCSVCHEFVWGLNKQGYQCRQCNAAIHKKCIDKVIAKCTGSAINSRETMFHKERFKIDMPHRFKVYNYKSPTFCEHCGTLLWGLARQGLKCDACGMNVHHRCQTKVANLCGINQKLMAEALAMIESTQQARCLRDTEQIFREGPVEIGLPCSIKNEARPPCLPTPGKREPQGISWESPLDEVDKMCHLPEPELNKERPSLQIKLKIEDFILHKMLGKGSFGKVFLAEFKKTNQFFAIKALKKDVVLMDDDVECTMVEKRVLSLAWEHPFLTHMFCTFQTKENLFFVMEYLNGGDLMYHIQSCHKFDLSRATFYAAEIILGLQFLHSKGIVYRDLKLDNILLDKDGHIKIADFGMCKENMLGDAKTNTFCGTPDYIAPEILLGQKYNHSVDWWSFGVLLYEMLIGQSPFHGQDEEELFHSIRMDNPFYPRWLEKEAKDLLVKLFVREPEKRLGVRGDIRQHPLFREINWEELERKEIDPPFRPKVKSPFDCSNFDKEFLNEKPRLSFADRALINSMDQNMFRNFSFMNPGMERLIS

In general, inhibition refers to the change of the read-out against control, counted positive when it falls. On to `Clc1ccc(C2(c3ccc(-c4ncnc5[nH]cnc45)cc3)CCNCC2)cc1`, for which the values for the inhibition in assay [1], in assay [2] and in [3] were 4%, 31.5% and 11.5%, respectively. Consider `NCCc1ccc(-c2ncnc3[nH]cnc23)cc1`, for which the inhibition is 74% in assay [4] and 64.5% in assay [5]. Regarding `NC1(Cc2ccc(Cl)cc2)CCN(c2ncnc3[nH]ccc23)CC1`, the inhibition in assay [6] stood at 0%. Regarding `NC1CCN(c2ncnc3[nH]ccc23)CC1`, the inhibition in assay [7] is 1.5%; in assay [8] it was 0%.

Take `CNCc1ccc(-c2ncnc3[nH]cnc23)cc1`: the inhibition in [9] turned out to be 44%.
